Measured values as given in the supplement of paper PMC10627819.

Experiments:
[1] = system: B. subtilis 168; experiment: fitness (endpoint OD595 vs no drug) (fraction); higher = more growth
Method in brief: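 Fitness was defined as the optical density at the transition into stationary phase relative to the robust mean of no-drug control wells. Values were capped at 1. Cultures were started at OD595 0.01 in 384-well plates (30 µl, or 55 µl for S. pneumoniae) in TSB, LB Lennox or CY at 37 °C. OD595 was recorded every 30 min over 14 h, with the first reading subtracted as background.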

[2] = system: B. subtilis 168; experiment: Bliss interaction score (quartile over a dose matrix) (fitness difference); higher = more antagonism (negative = synergy)
Method in brief: (§1)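 Combination data were used to infer fitness under each single drug. Fitness is the OD595 at entry into stationary phase divided by the robust mean of the plate's no-drug wells, with a cap of 1. The Bliss score is the observed minus the expected product fitness, summarised by quartiles over technical, biological and donor/recipient replicates.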

[3] = system: S. aureus DSM 20231; experiment: as above
Method in brief: as §1

[4] = system: S. aureus Newman; experiment: as above
Method in brief: as §1

[5] = system: S. pneumoniae D39V; experiment: as above
Method in brief: as §1

[6] = first compound 0.04875 µg/mL, partner 0.1 µg/mL, one replicate
[7] = first compound 0.04875 µg/mL, partner 0.2 µg/mL, one replicate
[8] = first compound 0.0975 µg/mL, partner 0.1 µg/mL, one replicate
[9] = first compound 0.0975 µg/mL, partner 0.2 µg/mL, one replicate
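For Bliss interaction score (quartile over a dose matrix) in this document: first quartile when negative (synergy) and third quartile when positive (antagonism).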

Q: How did the fitness [1, 6] turn out when `CO/N=C(\C(=O)N[C@@H]1C(=O)N2C(C(=O)O)=C(COC(N)=O)CS[C@H]12)c1ccco1` [Cefuroxime] + CCC[C@@H]1C[C@@H](C(=O)N[C@@H]([C@H]2O[C@H](SC)[C@H](O)[C@@H](O)[C@H]2O)[C@@H](C)O)N(C)C1 [Lincomycin] was run?
A: 0.88

Q: What about the fitness [1, 7] of the same molecule?
A: 0.865

Q: What about the fitness ([1]; first compound 0.04875 µg/mL, partner 0.4 µg/mL) of the same molecule?
A: 0.682

Q: What about the fitness ([1]; first compound 0.04875 µg/mL, partner 0.8 µg/mL, one replicate) of the same molecule?
A: 0.505

Q: And the fitness ([1]; first compound 0.04875 µg/mL, partner 1.6 µg/mL, one replicate)?
A: 0.498

Q: What about the fitness [1, 8] of the same molecule?
A: 0.8

Q: And the fitness [1, 9]?
A: 0.713

Q: What about the fitness ([1]; first compound 0.0975 µg/mL, partner 0.4 µg/mL) of the same molecule?
A: 0.644

Q: And the fitness ([1]; first compound 0.0975 µg/mL, partner 0.8 µg/mL, one replicate)?
A: 0.467

Q: And the fitness ([1]; first compound 0.0975 µg/mL, partner 1.6 µg/mL, one replicate)?
A: 0.428

Q: And the fitness ([1]; first compound 0.195 µg/mL, partner 0.1 µg/mL)?
A: 0.554

Q: And the fitness ([1]; first compound 0.195 µg/mL, partner 0.2 µg/mL)?
A: 0.521

Q: And the fitness ([1]; first compound 0.195 µg/mL, partner 0.4 µg/mL)?
A: 0.396

Q: What about the fitness ([1]; first compound 0.195 µg/mL, partner 0.8 µg/mL, one replicate) of the same molecule?
A: 0.359

Q: What about the fitness ([1]; first compound 0.195 µg/mL, partner 1.6 µg/mL, one replicate) of the same molecule?
A: 0.323

Q: What about the fitness ([1]; first compound 0.39 µg/mL, partner 0.1 µg/mL, one replicate) of the same molecule?
A: 0.388

Q: What about the fitness ([1]; first compound 0.39 µg/mL, partner 0.2 µg/mL, one replicate) of the same molecule?
A: 0.358

Q: What about the fitness ([1]; first compound 0.39 µg/mL, partner 0.4 µg/mL, one replicate) of the same molecule?
A: 0.373

Q: And the fitness ([1]; first compound 0.78 µg/mL, partner 0.1 µg/mL, one replicate)?
A: 0.386

Q: What about the fitness ([1]; first compound 0.78 µg/mL, partner 0.2 µg/mL, one replicate) of the same molecule?
A: 0.372

Q: And the fitness ([1]; first compound 0.78 µg/mL, partner 0.4 µg/mL, one replicate)?
A: 0.319

Q: And the fitness ([1]; first compound 1.562 µg/mL, partner 0.1 µg/mL, one replicate)?
A: 0.303

Q: What about the fitness ([1]; first compound 1.562 µg/mL, partner 0.2 µg/mL, one replicate) of the same molecule?
A: 0.265

Q: What about the fitness ([1]; first compound 1.562 µg/mL, partner 0.4 µg/mL, one replicate) of the same molecule?
A: 0.265

Q: What about the fitness ([1]; first compound 3.125 µg/mL, partner 0.1 µg/mL, one replicate) of the same molecule?
A: 0.248

Q: What about the fitness ([1]; first compound 3.125 µg/mL, partner 0.2 µg/mL, one replicate) of the same molecule?
A: 0.19

Q: What about the fitness ([1]; first compound 3.125 µg/mL, partner 0.4 µg/mL, one replicate) of the same molecule?
A: 0.175

Q: And the fitness ([1]; first compound 6.25 µg/mL, partner 0.1 µg/mL, one replicate)?
A: 0.156

Q: And the fitness ([1]; first compound 6.25 µg/mL, partner 0.2 µg/mL, one replicate)?
A: 0.137

Q: What about the fitness ([1]; first compound 6.25 µg/mL, partner 0.4 µg/mL, one replicate) of the same molecule?
A: 0.101

Q: What about the Bliss interaction score [2] of the same molecule?
A: 0.0554

Q: And the Bliss interaction score [3]?
A: -0.223

Q: And the Bliss interaction score [4]?
A: -0.0658

Q: What about the Bliss interaction score [5] of the same molecule?
A: 0.0595

Q: What does the source list for `CO/N=C(\C(=O)N[C@@H]1C(=O)N2C(C(=O)O)=C(COC(N)=O)CS[C@H]12)c1ccco1` [Cefuroxime] + CN(C)C(=O)C(CCN1CCC(O)(c2ccc(Cl)cc2)CC1)(c1ccccc1)c1ccccc1 [Loperamide]?
A: fitness ([1]; first compound 0.04875 µg/mL, partner 50 µg/mL): 0.0325; fitness ([1]; first compound 0.04875 µg/mL, partner 100 µg/mL): 0.0294; fitness ([1]; first compound 0.0975 µg/mL, partner 50 µg/mL): 0.0377; fitness ([1]; first compound 0.0975 µg/mL, partner 100 µg/mL): 0.0312; fitness ([1]; first compound 0.195 µg/mL, partner 50 µg/mL): 0.0259; fitness ([1]; first compound 0.195 µg/mL, partner 100 µg/mL): 0.0385; fitness ([1]; first compound 1.562 µg/mL, partner 25 µg/mL, one replicate): 0.0361; fitness ([1]; first compound 1.562 µg/mL, partner 50 µg/mL, one replicate): 0.0196; fitness ([1]; first compound 1.562 µg/mL, partner 100 µg/mL, one replicate): 0.012; fitness ([1]; first compound 3.125 µg/mL, partner 25 µg/mL, one replicate): 0.0294; fitness ([1]; first compound 3.125 µg/mL, partner 50 µg/mL, one replicate): 0.033; fitness ([1]; first compound 3.125 µg/mL, partner 100 µg/mL, one replicate): 0.0049; fitness ([1]; first compound 6.25 µg/mL, partner 25 µg/mL, one replicate): 0.0192; fitness ([1]; first compound 6.25 µg/mL, partner 50 µg/mL, one replicate): 0.0196; fitness ([1]; first compound 6.25 µg/mL, partner 100 µg/mL, one replicate): 0.0099; Bliss interaction score [2]: -0.12; Bliss interaction score [3]: -0.521; Bliss interaction score [4]: -0.0645; Bliss interaction score [5]: -0.0403

Q: Which fitness ([1]; first compound 0.04875 µg/mL, partner 0.0125 µg/mL, one replicate) does the source give for `CO/N=C(\C(=O)N[C@@H]1C(=O)N2C(C(=O)O)=C(COC(N)=O)CS[C@H]12)c1ccco1` [Cefuroxime] + CO[C@@H]1[C@@H](OC(N)=O)[C@@H](O)[C@H](Oc2ccc3c(O)c(NC(=O)c4ccc(O)c(CC=C(C)C)c4)c(=O)oc3c2C)OC1(C)C [Novobiocin] here?
A: ≥ 1

Q: And the fitness ([1]; first compound 0.04875 µg/mL, partner 0.025 µg/mL, one replicate)?
A: 0.997

Q: What about the fitness [1, 6] of the same molecule?
A: 0.563

Q: And the fitness [1, 7]?
A: 0.528

Q: And the fitness ([1]; first compound 0.0975 µg/mL, partner 0.0125 µg/mL, one replicate)?
A: 0.824

Q: What about the fitness ([1]; first compound 0.0975 µg/mL, partner 0.025 µg/mL, one replicate) of the same molecule?
A: 0.893

Q: What about the fitness ([1]; first compound 0.0975 µg/mL, partner 0.05 µg/mL) of the same molecule?
A: 0.665

Q: And the fitness [1, 8]?
A: 0.483

Q: And the fitness [1, 9]?
A: 0.429

Q: What about the fitness ([1]; first compound 0.195 µg/mL, partner 0.0125 µg/mL, one replicate) of the same molecule?
A: 0.756

Q: What about the fitness ([1]; first compound 0.195 µg/mL, partner 0.025 µg/mL, one replicate) of the same molecule?
A: 0.76

Q: And the fitness ([1]; first compound 0.195 µg/mL, partner 0.05 µg/mL)?
A: 0.555

Q: What about the fitness ([1]; first compound 0.195 µg/mL, partner 0.1 µg/mL, one replicate) of the same molecule?
A: 0.36

Q: What about the fitness ([1]; first compound 0.195 µg/mL, partner 0.125 µg/mL, one replicate) of the same molecule?
A: 0.133

Q: What about the fitness ([1]; first compound 0.195 µg/mL, partner 0.2 µg/mL, one replicate) of the same molecule?
A: 0.335

Q: And the fitness ([1]; first compound 0.195 µg/mL, partner 0.25 µg/mL, one replicate)?
A: 0.108

Q: What about the fitness ([1]; first compound 0.195 µg/mL, partner 0.5 µg/mL, one replicate) of the same molecule?
A: 0.017

Q: And the fitness ([1]; first compound 0.39 µg/mL, partner 0.125 µg/mL, one replicate)?
A: 0.116

Q: What about the fitness ([1]; first compound 0.39 µg/mL, partner 0.25 µg/mL, one replicate) of the same molecule?
A: 0.0783

Q: What about the fitness ([1]; first compound 0.39 µg/mL, partner 0.5 µg/mL, one replicate) of the same molecule?
A: 0

Q: What about the fitness ([1]; first compound 0.78 µg/mL, partner 0.125 µg/mL, one replicate) of the same molecule?
A: 0.0821

Q: And the fitness ([1]; first compound 0.78 µg/mL, partner 0.25 µg/mL, one replicate)?
A: 0.0334

Q: And the fitness ([1]; first compound 0.78 µg/mL, partner 0.5 µg/mL, one replicate)?
A: 0.0061

Q: What about the fitness ([1]; first compound 1.562 µg/mL, partner 0.0125 µg/mL, one replicate) of the same molecule?
A: 0.318

Q: What about the fitness ([1]; first compound 1.562 µg/mL, partner 0.025 µg/mL, one replicate) of the same molecule?
A: 0.274

Q: And the fitness ([1]; first compound 1.562 µg/mL, partner 0.05 µg/mL, one replicate)?
A: 0.263

Q: What about the fitness ([1]; first compound 3.125 µg/mL, partner 0.0125 µg/mL, one replicate) of the same molecule?
A: 0.264

Q: And the fitness ([1]; first compound 3.125 µg/mL, partner 0.025 µg/mL, one replicate)?
A: 0.23

Q: What about the fitness ([1]; first compound 3.125 µg/mL, partner 0.05 µg/mL, one replicate) of the same molecule?
A: 0.189

Q: And the fitness ([1]; first compound 6.25 µg/mL, partner 0.0125 µg/mL, one replicate)?
A: 0.249

Q: What about the fitness ([1]; first compound 6.25 µg/mL, partner 0.025 µg/mL, one replicate) of the same molecule?
A: 0.178

Q: What about the fitness ([1]; first compound 6.25 µg/mL, partner 0.05 µg/mL, one replicate) of the same molecule?
A: 0.159

Q: What about the Bliss interaction score [2] of the same molecule?
A: -0.0729

Q: And the Bliss interaction score [3]?
A: 0.119

Q: And the Bliss interaction score [4]?
A: -0.131

Q: And the Bliss interaction score [5]?
A: 0.0773
